Measurements taken from US20070249561A1, “Pharmacological method for treatment of neuropathic pain” (priority 2006, published 2007).

Experiments:
SNI rats = conditions: rat, in vivo
[1] = tested on: spared nerve injury (SNI) model of neuropathic pain in rats; test: Mechanical threshold (von Frey) to hindpaw withdrawal in spared nerve injury (SNI) rats; format: in vivo, rat; conditions: for effect of agonist alone on latency to hindpaw withdrawal (mechanical): 100 μg intrathecal; for effect on behavioral signs of neuropathic pain (mechanical threshold / latency to hindpaw withdrawal): dose series
Text: (§1) Male Sprague-Dawley rats (Charles Rivers Laboratories, Inc) were used, and weighed 280-320 g at the time of surgery and intrathecal catheter implantation, and 340-380 g during pharmacological testing. Animals were housed in individual cages on a 12-hour light/dark cycle starting at 6 a.m., and were given food and water […]. All animal use protocols were approved by the Institutional Animal Care and Use Committee (IACUC) of Tulane University.
(§2) Neuropathic pain was modeled in rats using the spared nerve injury model (“SNI”), which is widely accepted as a model for neuropathic pain. To produce the model, rats were anesthetized with isoflurane (5% induction, then 1.5% maintenance in oxygen). As previously described, an incision was made in the skin at the level of the trifurcation of the left sciatic nerve (Decosterd et al., 2000). The overlying muscles were retracted, exposing the common peroneal, tibial, and sural nerves. The common peroneal and tibial nerves were ligated with 6-0 silk (Ethicon, Somerville, N.J.), and then the knot and adjacent nerve (2 mm) were transected. Care was taken to avoid touching the sural nerve branch. The muscle was then sutured with 4-0 absorbable sutures (Ethicon) and the wound was closed with metal clips.
(§3) At the time of nerve injury, animals were re-anesthetized with isoflurane (Baxter, Deerfield, Ill.), and then placed in a stereotaxic apparatus (Stoelting, Wood Dale, Ill.). As previously described (Malkmus et al., 2004), rats were implanted with polyethylene-10 (PE-10, Clay Adams, Sparks, Md.) intrathecal catheters. Briefly, the animal's head was flexed forward in the stereotaxic apparatus, an incision was made in the skin at the back of the head and neck, and the cisternal membrane was exposed by sharp dissection. The membrane was gently punctured with the tip of a #15 scalpel blade, and the distal end of a 7.5 cm long PE-10 catheter was passed through the opening in the cisternal membrane, into the intrathecal space. The catheter was loosely sutured to subcutaneous tissue, leaving the proximal end external to the animal and accessible to the experimenter, and the skin was then approximated using 4-0 absorbable sutures (Ethicon).
(§4) Following surgery, rats were allowed 7 days to recover prior to drug administration and experimentation. To minimize any effects of animal handling on experimental data, drugs and vehicle (saline, or saline and DMSO) were administered via remote injection. PE-10 tubing, filled with vehicle or drug, was used to connect a Hamilton microsyringe to a 30-gauge microinjector, through which 15-20 μL of vehicle or drug was delivered to the lumbar region of the spinal cord via the intrathecal catheter. Progress of the injection was visually confirmed by observing the movement of a small air bubble within the PE-10 tubing. Injectors were left in place an additional minute after fluid delivery, to minimize backflow within the catheter, and animals were then returned to the testing box.
(§5) All drug solutions were freshly prepared daily. After evaporating methyl acetate solvent under a gentle nitrogen stream, 15-deoxy-Δ^12,14 PGJ2 was reconstituted in isotonic saline (comprising 0.9% sodium chloride in water, also called “normal saline”). Rosiglitazone was diluted to the concentrations indicated in the FIGS. with a solution of 30% dimethylsulfoxide (DMSO) and 70% isotonic saline. 15-deoxy-Δ^12,14 PGJ2, rosiglitazone, BADGE, and DMSO were all obtained from Cayman Chemicals (Ann Arbor, Mich.). As used herein, the term “vehicle” refers to the solvent used to dilute the drugs, and may comprise without limitation, DMSO, saline, and water.
(§6) Data are presented as mean±standard error of the mean (SEM). Differences between means were analyzed by two-way repeated-measures analysis of variance (ANOVA), with drug treatment as the between-subjects variable and time as the repeated measure. […]

[2] = tested on: spared nerve injury (SNI) model of neuropathic pain in rats; test: Cold allodynia (acetone drop, paw withdrawal duration) in SNI rats; format: in vivo, rat
Text: as §1, §2, §3, §4, §5, §6

[3] = tested on: spared nerve injury (SNI) model of neuropathic pain in mice; test: Mechanical threshold (von Frey) to hindpaw withdrawal in SNI mice; format: in vivo, mouse; conditions: intrathecal
Protocol: (§7) Male CD1 mice (Charles Rivers Laboratories, Inc) were used, and weighed 18-22 g at the time of surgery, and 29-32 g during pharmacological testing. To produce the SNI model in mice, surgical procedures essentially identical to those used in rat were used. Unlike the rat SNI model, where an indwelling catheter was inserted surgically, vehicle or drugs were injected directly into the intrathecal space of the unanesthetized mouse using the classical method of Hylden and Wilcox (“Intrathecal morphine in mice: a new technique” Eur. J. Pharmacol. 17:313-6, 1980) to administer drugs to the intrathecal space dorsal to but not within the spinal cord. Briefly, a piece of cloth was used to restrain the mouse by cradling the iliac crest between one's thumb and forefinger. The L5-L6 spinal bones were located, and a 0.5 inch 30G hypodermic needle was inserted perpendicularly into the L4-L5 interspinous space. Upon insertion, the needle was angled about 30°-45° from the coronal (frontal) plane, and then advanced slightly. The needle angle was then adjusted gently, until paw or tail movement was evoked, whereupon the needle was held in position and 5 μL of saline or drug was administered via a 25 μL Hamilton syringe.
(§8) Data are presented as mean±standard error of the mean (SEM). Differences between means were analyzed by two-way repeated-measures analysis of variance (ANOVA), with drug treatment as the between-subjects variable and time as the repeated measure. If statistically significant differences (p<0.05) were detected, the analyses were followed by post hoc t-tests.
(§9) The procedures used to evaluate behavioral signs of mechanical and cold allodynia were essentially the same for rats as they were for mice. Animals were acclimated to a stainless steel grid within individual Plexiglas boxes for 30-60 minutes, and then tested for mechanical allodynia and cold allodynia. In all animals, mechanical allodynia was assessed using von Frey (VF) filaments (Stoelting, Inc), and was done before assessing cold allodynia.
To assess mechanical allodynia, the plantar region of each hind paw was stimulated with an incremental series of 8 different VF hairs (monofilaments of logarithmically varying stiffness). In SNI rats and mice, the stimulus region was localized to the sural innervation territory of the lateral aspect of the plantar hind paw. The 50% withdrawal threshold (“mechanical” threshold) was determined using the up-down method of Dixon, modified by Chaplan et al. (Chaplan et al., 1994). First, an intermediate von Frey monofilament (e.g., for rats, number 4.31 was used, which exerts a force of 2.0 g) was applied perpendicular to the plantar skin, causing a slight bending of the hair. […]

[4] = Heneka et al. 2005; Maeshiba et al. 1997; cited from earlier work
[5] = tested on: spared nerve injury (SNI) model of neuropathic pain in mice; test: Cold allodynia (acetone drop, paw withdrawal duration) in SNI mice; format: in vivo, mouse; conditions: intrathecal
Protocol: as §7, §8, §9
Cold allodynia was evaluated by applying a drop of acetone to the plantar paw of control and SNI rats. Acetone was applied via a syringe connected to PE-90 tubing, flared at the tip to a diameter of 3.5 mm. Surface tension maintained the volume of the drop to 10-12 μL. The length of time the animal lifted or shook its paw was recorded. The duration of paw withdrawal was recorded for 30 seconds, and three observations were averaged. […] In such cases acetone testing was either terminated, or that data was not included in the final analysis.

[6] = tested on: animals subjected to sham SNI surgery; test: Sensory thresholds (mechanical, cold, infrared heat) in rats subjected to sham SNI surgery; format: in vivo, rat; conditions: p>0.05
Protocol: as §9
To assess mechanical allodynia, the plantar region of each hind paw was stimulated with an incremental series of 8 different VF hairs (monofilaments of logarithmically varying stiffness). In SNI rats and mice, the stimulus region was localized to the sural innervation territory of the lateral aspect of the plantar hind paw. The 50% withdrawal threshold (“mechanical” threshold) was determined using the up-down method of Dixon, modified by Chaplan et al. (Chaplan et al., 1994). First, an intermediate von Frey monofilament (e.g., for rats, number 4.31 was used, which exerts a force of 2.0 g) was applied perpendicular to the plantar skin, causing a slight bending of the hair. In the event of a positive response (defined as rapid withdrawal of the paw within 6 seconds), a smaller filament was tested. In the event of a negative response, a larger filament was tested. The mechanical threshold is the smallest amount of force required to evoke a positive response. […] In such cases von Frey testing was either terminated, or that data was not included in the final analysis.
Cold allodynia was evaluated by applying a drop of acetone to the plantar paw of control and SNI rats. Acetone was applied via a syringe connected to PE-90 tubing, flared at the tip to a diameter of 3.5 mm. Surface tension maintained the volume of the drop to 10-12 μL. The length of time the animal lifted or shook its paw was recorded. The duration of paw withdrawal was recorded for 30 seconds, and three observations were averaged. […]
(§10) To assess more subtle behavioral effects, we evaluated the effects of rosiglitazone on motor coordination and sensory thresholds in uninjured rats.

[7] = tested on: animals subjected to sham SNI surgery; test: Accelerating rotarod test of motor coordination in sham SNI rats; format: in vivo, rat
Protocol: To evaluate the effect of PPARγ agonists on proprioceptive function, rats were placed on an accelerating rotarod (Stoelting, Wood Dale, III). The rotating rod was subdivided into four compartments for the simultaneous assessment of four animals. Initially rotating at a rate of 4 rpm, the system was adjusted gradually over 10 minutes to a maximum speed of 40 rpm. The time that a rat remained on the rotating rod without falling off was recorded—the rotarod duration. After sham SNI surgery and one day before testing, animals were acclimated to the rotarod for 5-10 trials, yielding average latencies of approximately 3 minutes. On the day of testing, rotarod duration was measured three times prior to drug or vehicle administration, and the times averaged. After drug administration, rotarod duration was measured in triplicate at 60 and 120 minutes from the time of administration, with durations averaged for each time point.
as §10

For CCCCC/C=C/C=C1/C(=O)C=C[C@@H]1CC=CCCCC(=O)O (stereo in doubt) [15-deoxy-Δ^12,14 PGJ2, (Z)-7-[(1S,5E)-5-[(E)-oct-2-enylidene]-4-oxo-1-cyclopent-2-enyl]hept-5-enoic acid], the “gross behavioral changes or other obvious deleterious effects” value (SNI rats) was “neither 15-deoxy-Δ^12,14 PGJ2 nor rosiglitazone produced gross behavioral changes or other obvious deleterious effects”, the “effect of agonist alone on latency to hindpaw withdrawal (mechanical)” value ([1]; SNI rats) was “increased latency to hindpaw withdrawal” and the “dissipation of analgesic effect (mechanical threshold)” value ([1]; intrathecal, SNI rats) was “dissipated after four hours”. The “onset of analgesic effect after injection (mechanical threshold)” value ([1]; intrathecal, SNI rats) was ≤ 30 min, the “time of peak analgesic effect after injection (mechanical threshold)” value ([1]; intrathecal, SNI rats) was “about 60 minutes” and the “ED50, log dose-response curve, mechanical threshold (hindpaw withdrawal)” value ([1]; intrathecal, SNI rats, 60 minutes after injection) was 73.97 μg. The “effect on behavioral signs of neuropathic pain (mechanical threshold / latency to hindpaw withdrawal)” value ([1]; intrathecal, SNI rats) was “reduced behavioral signs of neuropathic pain”.

For CC(C)(c1ccc(OCC2CO2)cc1)c1ccc(OCC2CO2)cc1 (stereo not shown) [BADGE, bisphenol A diglycidyl ether], the “effect of co-administered antagonist on rosiglitazone analgesia (cold hypersensitivity)” value ([2]; intrathecal co-administration with 100 μg rosiglitazone) was “dose-dependently eliminated the analgesic effects of rosiglitazone”, the “effect of antagonist administered alone on hindpaw withdrawal latency” value ([1]; administered alone, SNI rats) was “did not have a significant effect on hindpaw withdrawal latency” and the “ED50, log dose-response curve, block of 15-deoxy-Δ^12,14 PGJ2-induced elevation of mechanical threshold” value ([1]; intrathecal co-administration with 100 μg 15-deoxy-Δ^12,14 PGJ2, 60 minutes after injection, SNI rats) was 11.44 μg. The “effect of co-administered antagonist on analgesic effects of 15-deoxy-Δ^12,14 PGJ2 (mechanical threshold)” value ([1]; intrathecal co-administration with 100 μg 15-deoxy-Δ^12,14 PGJ2, SNI rats) was “eliminated the analgesic effects of 15-deoxy-Δ^12,14 PGJ2” and the “effect of co-administered antagonist on rosiglitazone analgesia (mechanical hypersensitivity)” value ([1]; intrathecal co-administration with 100 μg rosiglitazone, SNI rats) was “eliminated the analgesic effects of 100 μg rosiglitazone on mechanical hypersensitivity in a dose-dependent manner”.

For CCc1ccc(CCOc2ccc(CC3SC(=O)NC3=O)cc2)nc1 (stereo not shown) [pioglitazone, 5-[[4-[2-(5-ethylpyridin-2-yl)ethoxy]phenyl]methyl]thiazolidine-2,4-dione], the “onset of anti-allodynic effect after injection (mechanical threshold)” value ([3]; 150 μg dose) was ≤ 30 min, the “time after which anti-allodynic effect dissipated (mechanical threshold)” value ([3]; 150 μg dose) was 90 min and the “time of peak anti-allodynic effect after injection (mechanical threshold)” value ([3]; 150 μg dose) was 30 min. For the same compound, the “effect on behavioral signs of neuropathic pain (threshold to hindpaw withdrawal, von Frey)” value ([3]; dose series) was “reduced behavioral signs of neuropathic pain in a dose-dependent and reversible manner”, the “ability to cross the blood brain barrier” value [4] was “can cross the blood brain barrier” and the “onset of analgesic effects after injection (cold allodynia)” value [5] was ≤ 30 min. For the same compound, the “time of most pronounced analgesic effects (cold allodynia)” value [5] was “approximately 60 minutes”, the “time within which analgesic effects began to dissipate (cold allodynia)” value [5] was ≤ 90 min and the “effect on cold hypersensitivity (paw withdrawal duration after acetone)” value ([5]; dose series) was “decreased cold hypersensitivity in a dose-dependent and reversible manner”.

With CN(CCOc1ccc(CC2SC(=O)NC2=O)cc1)c1ccccn1 (stereo not shown) [rosiglitazone, 5-[[4-[2-(methyl-pyridin-2-yl-amino)ethoxy]phenyl]methyl]thiazolidine-2,4-dione] the “effect on cold response” value [6] was “does not affect”, the “effect on latency to paw withdrawal response to an infrared heat (IR) stimulus” value [6] was “does not affect” and the “effect on mechanical threshold” value [6] was “does not affect”. The “effect of agonist alone on cold hypersensitivity” value ([2]; 100 μg intrathecal) was “decreased cold hypersensitivity in a reversible manner”, the “dissipation of analgesic effects (cold allodynia)” value ([2]; intrathecal) was “dissipated after four hours” and the “onset of analgesic effects after injection (cold allodynia)” value ([2]; intrathecal) was ≤ 30 min. The “time of most pronounced analgesic effects (cold allodynia)” value ([2]; intrathecal) was “approximately 90 minutes”, the “effect on cold hypersensitivity (paw withdrawal duration after acetone)” value ([2]; intrathecal, dose series) was “decreased cold hypersensitivity in a dose-dependent and reversible manner” and the “gross behavioral changes or other obvious deleterious effects” value (SNI rats) was “neither 15-deoxy-Δ^12,14 PGJ2 nor rosiglitazone produced gross behavioral changes or other obvious deleterious effects”. For the same compound, the “effect of agonist alone on latency to hindpaw withdrawal (mechanical)” value ([1]; SNI rats) was “reduced behavioral signs of neuropathic pain in a reversible manner”, the “dissipation of analgesic effect (mechanical threshold)” value ([1]; intrathecal, SNI rats) was “dissipated after four hours” and the “onset of analgesic effect after injection (mechanical threshold)” value ([1]; intrathecal, SNI rats) was ≤ 30 min. The “time of peak analgesic effect after injection (mechanical threshold)” value ([1]; intrathecal, SNI rats) was “about 90 minutes”, the “effect on behavioral signs of neuropathic pain (mechanical threshold / latency to hindpaw withdrawal)” value ([1]; intrathecal, SNI rats) was “reduced behavioral signs of neuropathic pain in a dose-dependent and reversible manner” and the “effect on motor coordination (rotarod), supra-maximal dose” value ([7]; 1000 μg) was “reduced motor coordination, but this effect was small, not statistically significant”. For the same compound, the “effect on motor coordination (rotarod)” value ([7]; p>0.05) was “does not affect”.
